These compounds were tested against T1, human EP3 receptor (Homo sapiens, UniProt P43115) (assay: Cellular in vitro assay for determining EP3 receptor activity (human EP3 cell line, sulprostone-stimulated calcium luminescence)). Settings: CHO cells expressing human EP3 and mitochondrial Clytin; antagonist mode, sulprostone at EC50; read-out: EP3 CHO mtCLY ANTAG IC50.
T1 construct: expressed in transfected cells; host or cells: CHO K1 (Chinese Hamster Ovary), stably co-transfected with Galpha16 and mitochondrial clytin
T1 sequence (P43115 1-390): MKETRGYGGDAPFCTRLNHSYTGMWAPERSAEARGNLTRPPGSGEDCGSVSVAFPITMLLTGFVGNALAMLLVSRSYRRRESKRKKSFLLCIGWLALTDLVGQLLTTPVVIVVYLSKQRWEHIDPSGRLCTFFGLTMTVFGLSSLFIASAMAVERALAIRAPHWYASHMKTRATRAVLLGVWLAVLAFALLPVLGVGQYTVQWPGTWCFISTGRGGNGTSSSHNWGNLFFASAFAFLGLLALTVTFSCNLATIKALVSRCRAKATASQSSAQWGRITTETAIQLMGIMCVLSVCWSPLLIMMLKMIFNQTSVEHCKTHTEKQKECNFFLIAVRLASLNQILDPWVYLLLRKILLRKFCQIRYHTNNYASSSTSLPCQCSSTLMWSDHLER
Assay type: cell-based
Method in brief: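 CHO K1 cells stably expressing human EP3 with Gα16 and mitochondrial Clytin, loaded overnight with coelenterazine. Compounds added 10 min before sulprostone at its EC50; antagonism read immediately as reduced calcium-driven luminescence, quadruplicate points.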

| Structure (SMILES) | IC50 [nM] |
| --- | --- |
| Cc1nn(C(CNC(=O)c2cc3c(=O)[nH]c(-c4ccc5ccccc5c4)cn3n2)C(C)C)c(C)c1Cl (stereo not drawn) [Example 2-20, N-[2-(4-Chloro-3,5-dimethyl-1H-pyrazol-1-yl)-3-methylbutyl]-6-(2-naphthyl)-4-oxo-4,5-dihydropyrazolo[1,5-a]pyrazine-2-carboxamide] | 9.75 |
| COc1ccc([C@@H](C)NC(=O)c2cc3c(=O)[nH]c(-c4ccc5c(c4F)OCCO5)c(F)n3n2)cn1 [Example 1-111, 7-Fluoro-6-(5-fluoro-2,3-dihydro-1,4-benzodioxin-6-yl)-N-[(1R)-1-(6-methoxypyridin-3-yl)ethyl]-4-oxo-4,5-dihydropyrazolo[1,5-a]pyrazine-2-carboxamide] | 8.8 |
| COc1ccccc1C(C)NC(=O)c1cc2c(=O)[nH]c(-c3ccc4ccccc4c3)cn2n1 (stereo not drawn) [Example 2-8, N-[1-(2-Methoxyphenyl)ethyl]-6-(2-naphthyl)-4-oxo-4,5-dihydropyrazolo[1,5-a]pyrazine-2-carboxamide] | 1.2 |
| COCc1c(C(=O)N[C@H](C)c2ccc(F)cc2)nn2cc(-c3ccc4ccccc4c3)[nH]c(=O)c12 [Example 1-20, N-[(1R)-1-(4-Fluorophenyl)ethyl]-3-(methoxymethyl)-6-(naphthalen-2-yl)-4-oxo-4,5-dihydropyrazolo[1,5-a]pyrazine-2-carboxamide] | 1.09 |
| Cc1cccc2ncc(-c3cn4nc(C(=O)NC5(c6ccc(Cl)cc6)CCC5)c(C(C)C)c4c(=O)[nH]3)cc12 [Example 4-50, N-[1-(4-Chlorophenyl)cyclobutyl]-6-(5-methylquinolin-3-yl)-4-oxo-3-(propan-2-yl)-4,5-dihydropyrazolo[1,5-a]pyrazine-2-carboxamide] | 8.3 |
| CCc1ccc(C(C)NC(=O)c2cc3c(=O)[nH]c(-c4ccc5ccccc5c4)cn3n2)cc1 (stereo not drawn) [Example 2-39, N-[1-(4-Ethylphenyl)ethyl]-6-(2-naphthyl)-4-oxo-4,5-dihydropyrazolo[1,5-a]pyrazine-2-carboxamide] | 3.7 |
| COc1cccc(C(CCO)NC(=O)c2nn3c(C)c(-c4ccc5ccccc5c4)[nH]c(=O)c3c2C)c1 (stereo not drawn) [Example 3-39, N-[3-Hydroxy-1-(3-methoxyphenyl)propyl]-3,7-dimethyl-6-(2-naphthyl)-4-oxo-5H-pyrazolo[1,5-a]pyrazine-2-carboxamide] | 1.8 |
| Cc1cnn(C(CNC(=O)c2cc3c(=O)[nH]c(-c4ccc5ccccc5c4)cn3n2)C(C)C)c1 (stereo not drawn) [Example 2-12, N-[3-Methyl-2-(4-methyl-1H-pyrazol-1-yl)butyl]-6-(2-naphthyl)-4-oxo-4,5-dihydropyrazolo[1,5-a]pyrazine-2-carboxamide] | 4.65 |
| Cc1c(C(=O)N[C@H](CO)c2ccccc2)nn2c(C)c(-c3ccc4ccccc4c3)[nH]c(=O)c12 [Example 3-2, N-[(1S)-2-Hydroxy-1-phenylethyl]-3,7-dimethyl-6-(naphthalen-2-yl)-4-oxo-4,5-dihydropyrazolo[1,5-a]pyrazine-2-carboxamide] | 1.2 |
| COc1ccc(C(C)NC(=O)c2nn3cc(-c4ccc5ccccc5c4)[nH]c(=O)c3c2C#N)cc1 (stereo not drawn) [Example 3-51, 3-Cyano-N-[1-(4-methoxyphenyl)ethyl]-6-(2-naphthyl)-4-oxo-5H-pyrazolo[1,5-a]pyrazine-2-carboxamide] | 1.85 |
| Cc1ccc(-c2cn3nc(C(=O)N[C@H]4c5ccccc5C[C@@H]4O)cc3c(=O)[nH]2)cc1C [Example 1-80, 6-(3,4-Dimethylphenyl)-N-[(1S,2S)-2-hydroxy-2,3-dihydro-1H-inden-1-yl]-4-oxo-4,5-dihydropyrazolo[1,5-a]pyrazine-2-carboxamide] | 6.68 |
| C[C@H](NC(=O)c1nn2cc(-c3ccc4ccccc4c3)[nH]c(=O)c2c1C#N)c1ccccc1 [Example 3-46, 3-Cyano-6-(naphthalen-2-yl)-4-oxo-N-[(1S)-1-phenylethyl]-4,5-dihydropyrazolo[1,5-a]pyrazine-2-carboxamide] | 3.2 |
| Cc1c(C(=O)NCCOCC(F)(F)F)nn2c(C)c(-c3ccc4ccccc4c3)[nH]c(=O)c12 [Example 3-3, 3,7-Dimethyl-6-(naphthalen-2-yl)-4-oxo-N-[2-(2,2,2-trifluoroethoxy)ethyl]-4,5-dihydropyrazolo[1,5-a]pyrazine-2-carboxamide] | 5.4 |
| Cc1cccc2ncc(-c3cn4nc(C(=O)N[C@@H](C)c5ccccc5)c(C(C)C)c4c(=O)[nH]3)cc12 [Example 4-59, 6-(5-Methylquinolin-3-yl)-4-oxo-N-[(7S)-1-phenylethyl]-3-(propan-2-yl)-4,5-dihydropyrazolo[1,5-a]pyrazine-2-carboxamide] | 0.675 |
| Cc1cccc2ncc(-c3cn4nc(C(=O)NC5(C)CCS(=O)(=O)C5)c(C(C)C)c4c(=O)[nH]3)cc12 (stereo not drawn) [Example 4-17, 3-Isopropyl-N-(3-methyl-1,1-dioxothiolan-3-yl)-6-(5-methyl-3-quinolyl)-4-oxo-5H-pyrazolo[1,5-a]pyrazine-2-carboxamide] | 2.45 |

The remaining lines, values ahead:

| IC50 [nM] | Structure (SMILES) |
| --- | --- |
| 1.8 | Cc1ccc(-c2cn3nc(C(=O)N[C@@H](c4ccc(F)cc4)C(C)(C)O)c(C(F)(F)C(F)(F)F)c3c(=O)[nH]2)cc1F [6-492] |
| 1.4 | CC(C)(O)[C@@H](NC(=O)c1nn2cc(-c3ccc(Cl)c(C(F)F)c3)[nH]c(=O)c2c1C1CC1)c1ccc(F)cc1 [6-666] |
| 3.67 | CC[C@@H](C)NC(=O)c1cc2c(=O)[nH]c(-c3ccc(C)c(C4CC4)c3)cn2n1 [6-613] |
| 7 | CC(CN1CCOCC1)NC(=O)c1nn2cc(-c3ccc4ccccc4c3)[nH]c(=O)c2c1C(F)(F)F (single isomer, unassigned) [6-524] |
| 0.46 | Cc1cc(-c2cn3nc(C(=O)N[C@@H](c4ccc(F)cc4)C(C)(C)O)c(C4CC4)c3c(=O)[nH]2)c(F)cc1Cl [6-594] |
| 0.37 | Cc1cc(-c2cn3nc(C(=O)N[C@H](CCO)c4ccc(F)cc4)c(C(F)(F)F)c3c(=O)[nH]2)ccc1Cl [6-233] |
| 1.4 | CCn1cc(CNC(=O)c2nn3cc(-c4ccc5ccccc5c4)[nH]c(=O)c3c2Cl)c(C)n1 [6-10] |
| 5.7 | O=C(NC(CCn1cncn1)c1ccccc1)c1cc2c(=O)[nH]c(-c3ccc4ccccc4c3)cn2n1 (stereo not drawn) [6-48] |
| 6.9 | O=C(NC1CCN(CC(F)F)C1)c1nn2cc(-c3ccc4ccccc4c3)[nH]c(=O)c2c1C(F)(F)F (single isomer, unassigned) [6-519] |
| 3.03 | Cc1cc(-c2cn3nc(C(=O)N[C@@H](c4ccc(F)cc4)C(F)(F)CO)c(C(F)(F)F)c3c(=O)[nH]2)ccc1F [6-647] |
| 4.4 | Cc1cc(-c2cn3nc(C(=O)NC(C)C4CCC4)c(C4CC4)c3c(=O)[nH]2)ccc1Cl (single isomer, unassigned) [6-299] |
| 0.78 | CCCc1c(C(=O)NC2(c3ccc(F)cc3)CN(C)C2)nn2cc(-c3ccc(C)c(C)c3)[nH]c(=O)c12 [6-616] |
| 1.7 | Cc1cc(-c2cn3nc(C(=O)N[C@@H](c4ccc(F)cc4)C(C)(C)O)c(C4CC4(F)F)c3c(=O)[nH]2)ccc1Cl (stereo partly drawn) [6-551] |
| 3.2 | Cc1cc(-c2cn3nc(C(=O)N[C@H](C)C(C)(C)C)c(C4CC4)c3c(=O)[nH]2)ccc1Cl [6-318] |
| 7 | CC(NC(=O)c1cc2c(=O)[nH]c(-c3ccc4ccccc4c3)cn2n1)c1cnc(OCC(F)(F)F)cn1 (stereo not drawn) [6-7] |
| 5.7 | O=C(NC1CCN(C2CC2)C1)c1nn2cc(-c3ccc4ccccc4c3)[nH]c(=O)c2c1C(F)(F)F (single isomer, unassigned) [6-501] |
| 0.64 | Cc1ccc(-c2cn3nc(C(=O)NCC(O)C(F)(F)F)c(C4CC4)c3c(=O)[nH]2)cc1Cl (single isomer, unassigned) [6-259] |
| 2.43 | COC[C@H](NC(=O)c1cc2c(=O)[nH]c(-c3ccc4c(c3)OCCO4)cn2n1)c1ccccc1 [6-46] |
| 0.74 | O=C(NC1(c2ccc(F)cc2)CN(CC(F)(F)F)C1)c1nn2cc(-c3ccc(Cl)c(F)c3)[nH]c(=O)c2c1C1CC1 [6-103] |
| 1.7 | Cc1cc(-c2cn3nc(C(=O)NCC(C)(N)C(F)(F)F)c(C4CC4)c3c(=O)[nH]2)ccc1Cl (single isomer, unassigned) [6-321] |
| 2.15 | C[C@H](NC(=O)c1nn2cc(-c3ccc(Cl)c(F)c3)[nH]c(=O)c2c1C1CC(F)(F)C1)C1CC1 [6-556] |
| 0.48 | COc1cc(-c2cn3nc(C(=O)N[C@H](CCO)c4ccc(F)cc4)c(C4CC4)c3c(=O)[nH]2)ccc1Cl [6-482] |
| 3.15 | Cc1ccc(-c2cn3nc(C(=O)N[C@H](C)C(C)C)c(C(F)(F)F)c3c(=O)[nH]2)cc1C [6-114] |
| 6.65 | Cc1ccc(-c2cn3nc(C(=O)NC(C(C)(C)O)C(F)(F)F)c(C4CC4)c3c(=O)[nH]2)cc1F (racemic) [6-394] |
| 2 | Cc1ccc(-c2cn3nc(C(=O)NCC(O)C(F)(F)F)c(C4CC4)c3c(=O)[nH]2)cc1C(F)(F)F (racemic) [6-243] |
| 3.6 | Cc1ccc(-c2cn3nc(C(=O)N[C@H](CN4CC[C@@H](F)C4)c4ccccc4)cc3c(=O)[nH]2)cc1F [6-637] |
| 3.4 | COc1cc(-c2cn3nc(C(=O)NC4(c5ccc(F)cc5)CN(C)C4)c(C4CC4)c3c(=O)[nH]2)ccc1Cl [6-485] |
| 8.05 | Cc1ccc(-c2cn3nc(C(=O)NC(CN(C)C)c4ccc(F)cc4)c(C4CC4)c3c(=O)[nH]2)cc1C (single isomer, unassigned) [6-446] |
| 3.4 | CC[C@@H](C)NC(=O)c1nn2cc(-c3ccc(C)c(C)c3)[nH]c(=O)c2c1C(F)(F)F [6-113] |
| 1.45 | C[C@@H](NC(=O)c1cc2c(=O)[nH]c(-c3ccc4cccc(F)c4c3)cn2n1)c1ccc(F)cc1 [6-38] |
